Laboratory results: ChEMBL document CHEMBL1201862, “PubChem BioAssay data set” (2004)
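48-hour exposure; five concentrations; linearly interpolated endpoints. GI50 marks 50% less growth.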 The source made the active and inactive calls. Rule as the data show it: active = GI50 up to about 1.1 µM and inactive = higher.

Tests used:
Experiment in all cases: NCI anticancer screen, dose series, 48 h
OVCAR-5 = test system: OVCAR-5
KM12 = test system: KM12
NCI-H23 = test system: NCI-H23
NCI-H460 = test system: NCI-H460
HL-60 = test system: HL-60
ACHN = test system: ACHN
OVCAR-4 = test system: OVCAR-4
HOP-62 = test system: HOP-62
HOP-92 = test system: HOP-92
SNB-19 = test system: SNB-19
A549 = test system: A549
COLO 205 = test system: COLO 205
DMS-273 = test system: DMS-273
LXFL 529 = test system: LXFL 529
M19-MEL = test system: M19-MEL
RPMI-8226 = test system: RPMI-8226
HOP-18 = test system: HOP-18
OVCAR-8 = test system: OVCAR-8
Malme-3M = test system: Malme-3M
XF498 = test system: XF498
HCC 2998 = test system: HCC 2998
KM-20L2 = test system: KM-20L2
A498 = test system: A498
M14 = test system: M14
SNB-78 = test system: SNB-78
HT-29 = test system: HT-29
RXF 393 = test system: RXF 393
NCI-H522 = test system: NCI-H522
MOLT-4 = test system: MOLT-4
HCT-15 = test system: HCT-15
SK-MEL-28 = test system: SK-MEL-28
SF-539 = test system: SF-539
SW-620 = test system: SW-620
NCI-H226 = test system: NCI-H226
HCT-116 = test system: HCT-116
UACC-257 = test system: UACC-257
EKVX = test system: EKVX
SN12C = test system: SN12C
SK-MEL-5 = test system: SK-MEL-5
SF-295 = test system: SF-295
U-251 = test system: U-251
DLD-1 = test system: DLD-1
UO-31 = test system: UO-31
K562 = test system: K562
SK-OV-3 = test system: SK-OV-3
UACC-62 = test system: UACC-62
LOX IMVI = test system: LOX IMVI
SR = test system: SR
SNB-75 = test system: SNB-75
786-0 = test system: 786-0
OVCAR-3 = test system: OVCAR-3
SF-268 = test system: SF-268
IGROV-1 = test system: IGROV-1
CAKI-1 = test system: CAKI-1
TK-10 = test system: TK-10
DMS-114 = test system: DMS-114
SK-MEL-2 = test system: SK-MEL-2
CCRF-CEM = test system: CCRF-CEM

Which results are given for `Cc1ccc(S(=O)OCC23CC4CC(CC(C4)C2)C3)cc1` (configuration not stated)?
GI50 (OVCAR-5): > 100 µM (inactive); GI50 (KM12): > 100 µM (inactive); GI50 (NCI-H23): > 100 µM (inactive); GI50 (NCI-H460): > 100 µM (inactive); GI50 (HL-60): > 100 µM (inactive); GI50 (ACHN): > 100 µM (inactive); GI50 (OVCAR-4): > 100 µM (inactive); GI50 (HOP-62): > 100 µM (inactive); GI50 (HOP-92): > 100 µM (inactive); GI50 (SNB-19): > 100 µM (inactive); GI50 (A549): > 100 µM (inactive); GI50 (COLO 205): > 100 µM (inactive); GI50 (DMS-273): > 100 µM (inactive); GI50 (LXFL 529): > 100 µM (inactive); GI50 (M19-MEL): > 100 µM (inactive); GI50 (RPMI-8226): > 100 µM (inactive); GI50 (HOP-18): > 100 µM (inactive); GI50 (OVCAR-8): > 100 µM (inactive); GI50 (Malme-3M): > 100 µM (inactive); GI50 (XF498): > 100 µM (inactive); GI50 (HCC 2998): > 100 µM (inactive); GI50 (KM-20L2): > 100 µM (inactive); GI50 (A498): > 100 µM (inactive); GI50 (M14): > 100 µM (inactive); GI50 (SNB-78): > 100 µM (inactive); GI50 (HT-29): > 100 µM (inactive); GI50 (RXF 393): > 100 µM (inactive); GI50 (NCI-H522): > 100 µM (inactive); GI50 (MOLT-4): > 100 µM (inactive); GI50 (HCT-15): > 100 µM; GI50 (SK-MEL-28): > 100 µM (inactive); GI50 (SF-539): > 100 µM (inactive); GI50 (SW-620): > 100 µM (inactive); GI50 (NCI-H226): > 100 µM (inactive); GI50 (HCT-116): > 100 µM (inactive); GI50 (UACC-257): > 100 µM (inactive); GI50 (EKVX): > 100 µM (inactive); GI50 (SN12C): > 100 µM (inactive); GI50 (SK-MEL-5): > 100 µM (inactive); GI50 (SF-295): > 100 µM (inactive); GI50 (U-251): > 100 µM (inactive); GI50 (DLD-1): > 100 µM (inactive); GI50 (UO-31): 72.8 µM (inactive); GI50 (K562): > 100 µM (inactive); GI50 (SK-OV-3): > 100 µM (inactive); GI50 (UACC-62): > 100 µM (inactive); GI50 (LOX IMVI): > 100 µM (inactive); GI50 (SR): > 100 µM (inactive); GI50 (SNB-75): > 100 µM (inactive); GI50 (786-0): > 100 µM (inactive); GI50 (OVCAR-3): > 100 µM (inactive); GI50 (SF-268): > 100 µM (inactive); GI50 (IGROV-1): > 100 µM (inactive); GI50 (CAKI-1): > 100 µM (inactive); GI50 (TK-10): > 100 µM (inactive)

For `COc1cc2c(oc(=O)c3c4oc([Si](C)(C)C)cc4cc(OC)c23)c2cccc(O)c12`, which GI50 (OVCAR-5) is on record?
Its GI50 is > 100 µM (inactive).

What about the GI50 (KM12) of the same molecule?
Its GI50 is > 100 µM (inactive).

And the GI50 (NCI-H23)?
Its GI50 is > 100 µM (inactive).

And the GI50 (NCI-H460)?
Its GI50 is > 100 µM (inactive).

What about the GI50 (HL-60) of the same molecule?
The GI50 was > 100 µM (inactive).

And the GI50 (ACHN)?
Its GI50 is > 100 µM (inactive).

What about the GI50 (OVCAR-4) of the same molecule?
Its GI50 is > 100 µM (inactive).

And the GI50 (HOP-62)?
The GI50 was > 100 µM (inactive).

And the GI50 (HOP-92)?
The GI50 was > 100 µM (inactive).

What about the GI50 (SNB-19) of the same molecule?
The GI50 was > 100 µM (inactive).

What about the GI50 (A549) of the same molecule?
Its GI50 is > 100 µM (inactive).

And the GI50 (DMS-114)?
Its GI50 is > 100 µM (inactive).

And the GI50 (COLO 205)?
The GI50 was > 100 µM (inactive).

What about the GI50 (SK-MEL-2) of the same molecule?
The GI50 was > 100 µM (inactive).

And the GI50 (DMS-273)?
Its GI50 is > 100 µM (inactive).

And the GI50 (LXFL 529)?
The GI50 was > 100 µM (inactive).

And the GI50 (M19-MEL)?
The GI50 was > 100 µM (inactive).

What about the GI50 (CCRF-CEM) of the same molecule?
Its GI50 is > 100 µM (inactive).

What about the GI50 (RPMI-8226) of the same molecule?
Its GI50 is > 100 µM (inactive).

What about the GI50 (HOP-18) of the same molecule?
The GI50 was > 100 µM (inactive).

What about the GI50 (OVCAR-8) of the same molecule?
Its GI50 is > 100 µM (inactive).

And the GI50 (Malme-3M)?
The GI50 was > 100 µM (inactive).

What about the GI50 (XF498) of the same molecule?
Its GI50 is > 100 µM (inactive).

And the GI50 (HCC 2998)?
The GI50 was > 100 µM (inactive).

And the GI50 (KM-20L2)?
The GI50 was > 100 µM (inactive).

And the GI50 (A498)?
Its GI50 is > 100 µM (inactive).

What about the GI50 (M14) of the same molecule?
Its GI50 is > 100 µM (inactive).

And the GI50 (HT-29)?
Its GI50 is > 100 µM (inactive).

What about the GI50 (RXF 393) of the same molecule?
The GI50 was > 100 µM (inactive).

What about the GI50 (NCI-H522) of the same molecule?
The GI50 was > 100 µM (inactive).

And the GI50 (MOLT-4)?
The GI50 was > 100 µM (inactive).

What about the GI50 (HCT-15) of the same molecule?
The GI50 was over 100 µM.

And the GI50 (SK-MEL-28)?
The GI50 was > 100 µM (inactive).

What about the GI50 (SF-539) of the same molecule?
The GI50 was > 100 µM (inactive).

What about the GI50 (SW-620) of the same molecule?
The GI50 was > 100 µM (inactive).

What about the GI50 (NCI-H226) of the same molecule?
Its GI50 is > 100 µM (inactive).

And the GI50 (HCT-116)?
Its GI50 is > 100 µM (inactive).

What about the GI50 (UACC-257) of the same molecule?
The GI50 was > 100 µM (inactive).

And the GI50 (EKVX)?
Its GI50 is > 100 µM (inactive).

And the GI50 (SN12C)?
Its GI50 is > 100 µM (inactive).

What about the GI50 (SK-MEL-5) of the same molecule?
Its GI50 is > 100 µM (inactive).

And the GI50 (SF-295)?
The GI50 was > 100 µM (inactive).

And the GI50 (U-251)?
Its GI50 is > 100 µM (inactive).

And the GI50 (DLD-1)?
Its GI50 is > 100 µM (inactive).

And the GI50 (UO-31)?
Its GI50 is > 100 µM (inactive).

And the GI50 (K562)?
Its GI50 is > 100 µM (inactive).

And the GI50 (SK-OV-3)?
The GI50 was > 100 µM (inactive).

And the GI50 (UACC-62)?
Its GI50 is > 100 µM (inactive).

What about the GI50 (LOX IMVI) of the same molecule?
Its GI50 is > 100 µM (inactive).

And the GI50 (SR)?
The GI50 was > 100 µM (inactive).

And the GI50 (SNB-75)?
Its GI50 is 36.4 µM (inactive).

What about the GI50 (786-0) of the same molecule?
Its GI50 is > 100 µM (inactive).

And the GI50 (OVCAR-3)?
Its GI50 is > 100 µM (inactive).

What about the GI50 (SF-268) of the same molecule?
Its GI50 is > 100 µM (inactive).

What about the GI50 (IGROV-1) of the same molecule?
Its GI50 is > 100 µM (inactive).

And the GI50 (CAKI-1)?
Its GI50 is > 100 µM (inactive).

And the GI50 (TK-10)?
Its GI50 is > 100 µM (inactive).
